{"source": "paper PMC11882969", "about": "(Nature Communications, 2025)", "target": "panel of 320 non-olfactory GPCRs (Homo sapiens, UniProt Q96LB2)", "sequence (Q96LB2 whole entry)": "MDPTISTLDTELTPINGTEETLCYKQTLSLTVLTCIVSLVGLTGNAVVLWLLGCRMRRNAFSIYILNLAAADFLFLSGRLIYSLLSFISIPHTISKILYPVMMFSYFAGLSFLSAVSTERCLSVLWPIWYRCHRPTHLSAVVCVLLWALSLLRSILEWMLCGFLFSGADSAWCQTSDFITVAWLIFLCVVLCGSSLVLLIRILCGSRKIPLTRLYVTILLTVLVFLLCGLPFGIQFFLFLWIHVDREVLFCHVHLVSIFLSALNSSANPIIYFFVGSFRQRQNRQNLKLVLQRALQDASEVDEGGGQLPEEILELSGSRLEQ", "format": "cell-based", "note": "“And” between values parts separate entries of the source, which are not always exact repeats. Equal entries are not always repeated. Note: test concentration or dose not given here.", "data": [{"smiles": "COC(=O)[C@@](C)(NC(=O)c1cc(C)n(-c2cccc(C(F)(F)F)c2)n1)c1cccs1", "note": "[‘1350]", "values": [{"measurement": "Fold of Basal RLU", "value": "0.9 and 0.7 and 0.8 and 1.1"}]}]}
